In patent publication US20240279215A1 (Cytokinetics, Incorporated, priority 2022, published 2024):

Biological target: human NAMPT (Homo sapiens (Human), UniProt P43490)
Assay: NMN fluorescence biochemical assay (human recombinant NAMPT enzyme assay)
Method in brief: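 Activation of recombinant human NAMPT (6 nM) was tested with 2.5 mM ATP, 20 μM PRPP and 150 μM nicotinamide in 50 mM HEPES pH 7.2 for 60 min at ambient temperature. NMN was derivatized with acetophenone/KOH/formic acid and read by fluorescence (355/460 nm) after 40 min.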

human NAMPT, sequence (P43490 whole entry): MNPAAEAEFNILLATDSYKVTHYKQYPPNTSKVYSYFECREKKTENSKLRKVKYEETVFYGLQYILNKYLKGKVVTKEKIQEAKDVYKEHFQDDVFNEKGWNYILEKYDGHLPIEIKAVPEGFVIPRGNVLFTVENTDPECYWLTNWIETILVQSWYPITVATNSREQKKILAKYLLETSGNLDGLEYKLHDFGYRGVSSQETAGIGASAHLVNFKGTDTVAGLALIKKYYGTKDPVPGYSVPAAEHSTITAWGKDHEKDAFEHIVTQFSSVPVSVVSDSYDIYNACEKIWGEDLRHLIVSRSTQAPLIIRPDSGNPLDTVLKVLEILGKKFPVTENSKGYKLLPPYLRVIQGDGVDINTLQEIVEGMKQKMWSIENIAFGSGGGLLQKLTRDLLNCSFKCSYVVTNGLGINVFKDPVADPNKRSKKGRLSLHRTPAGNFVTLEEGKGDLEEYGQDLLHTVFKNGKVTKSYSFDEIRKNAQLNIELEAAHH

Compound	AC1.4 Human [µM]	EC50 [µM]
O=C(Nc1ccc(CC2C3CCC2CNC3)cc1)OCc1cnco1 (centres unmarked) [Compound 426, oxazol-5-ylmethyl (4-((3-azabicyclo[3.2.1]octan-8-yl)methyl)phenyl)carbamate]	1.62	32.4
CC(=O)N1CCC(Cc2ccc(NC(=O)OCc3cnco3)cc2F)CC1 [Compound 451, oxazol-5-ylmethyl (4-((1-acetylpiperidin-4-yl)methyl)-3-fluorophenyl)carbamate]	0.16	7.79
COc1ccc(COC(=O)Nc2ccc(CNC(=O)c3ccc(C)nc3)cc2)cc1 [Compound 53, (4-methoxyphenyl)methyl N-(4-{[(6-methylpyridin-3-yl)formamido]methyl}phenyl)carbamate]	0.51	5.89
O=C(Nc1ccc(Cc2ccncc2)cc1)OCc1cnsc1 [Compound 299, isothiazol-4-ylmethyl (4-(pyridin-4-ylmethyl)phenyl)carbamate]	4.67	11.6
CN(C)C(=O)N1CCC2(CC(c3ccc(NC(=O)OCc4cnco4)cc3F)C2)C1 (single isomer, unassigned) [Compound 363]	0.03	4.49
COc1ccc(COC(=O)Nc2ccc([C@H](C)C(=O)N3CCC[C@H]3CO)cc2)cc1 [Compound 341]	11.08	55.6
O=C(Nc1ccc(Cc2ccncc2)cc1)OCc1ccns1 [Compound 219, isothiazol-5-ylmethyl (4-(pyridin-4-ylmethyl)phenyl)carbamate]	2.03	20.6
N#Cc1ccc(COC(=O)Nc2ccc(Cc3ccncc3)cc2)cc1 [Compound 306, 4-cyanobenzyl (4-(pyridin-4-ylmethyl)phenyl)carbamate]	4.97	13.9
O=C(Nc1ccc(Cc2cnccn2)cc1)OCc1ccc(Cl)cc1 [Compound 303, 4-chlorobenzyl (4-(pyrazin-2-ylmethyl)phenyl)carbamate]	4.87	19.4
CS(=O)(=O)N1C2CCC1CC(Cc1ccc(NC(=O)OCc3cnco3)cc1)C2 (centres unmarked) [Compound 406, oxazol-5-ylmethyl (4-((8-(methylsulfonyl)-8-azabicyclo[3.2.1]octan-3-yl)methyl)phenyl)carbamate]	0.13	6.01
COc1cnn(C)c1C(=O)N[C@@H](C)c1ccc(NC(=O)OCc2ccc(Cl)cc2)cc1 [Compound 92, (4-chlorophenyl)methyl N-{4-[(1S)-1-[(4-methoxy-2-methylpyrazol-3-yl)formamido]ethyl]phenyl}carbamate]	0.75	3.22
COc1ccc(COC(=O)Nc2ccc(CN3CCN(c4ccccn4)CC3)cc2)cc1 [Compound 83, (4-methoxyphenyl)methyl N-(4-{[4-(pyridin-2-yl)piperazin-1-yl]methyl}phenyl)carbamate]	0.66	8.11
CN(C)C(=O)N1CC2(CC(Cc3ccc(NC(=O)OCc4cnco4)cc3F)C2)C1 [Compound 398, oxazol-5-ylmethyl (4-((2-(dimethylcarbamoyl)-2-azaspiro[3.3]heptan-6-yl)methyl)-3-fluorophenyl)carbamate]	0.08	3.29
COc1cc(C(=O)N[C@@H](C)c2ccc(NC(=O)OCc3ccc(Cl)cc3)cc2)n(C)n1 [Compound 95, (4-chlorophenyl)methyl N-(4-[(1S)-1-[(5-methoxy-2-methylpyrazol-3-yl)formamido]ethyl]phenyl}carbamate]	0.75	3.11
CCC(=O)N1CC2(CC(Cc3ccc(NC(=O)OCc4cnco4)cc3F)C2)C1 [Compound 402, oxazol-5-ylmethyl (3-fluoro-4-((2-propionyl-2-azaspiro[3.3]heptan-6-yl)methyl)phenyl)carbamate]	0.07	12.4
COCCN1CCC(Cc2ccc(NC(=O)OCc3cnco3)cc2)CC1 [Compound 293, oxazol-5-ylmethyl (4-((1-(2-methoxyethyl)piperidin-4-yl)methyl)phenyl)carbamate]	4.16	18.4
O=C(Nc1ccc(CC2CCN(CC3CCO3)CC2)cc1)OCc1cnco1 (centres unmarked) [Compound 471, oxazol-5-ylmethyl (4-((1-(oxetan-2-ylmethyl)piperidin-4-yl)methyl)phenyl)carbamate]	0.50	15
C[C@H](NC(=O)c1cnco1)c1ccc(NC(=O)OCc2ccc(Cl)cc2)cc1 [Compound 246, 4-chlorobenzyl (S)-(4-(1-(oxazole-5-carboxamido)ethyl)phenyl)carbamate]	2.43	6.14

Now from value to compound:

AC1.4 Human [µM]	EC50 [µM]	Compound
0.91	5.33	O=C(Nc1ccc(CC(=O)N2CCCCC2)cc1)OCc1ccc(Cl)cc1 [Compound 111, (4-chlorophenyl)methyl N-{4-[2-oxo-2-(piperidin-1-yl)ethyl]phenyl}carbamate]
1.38	7.53	Cc1cc(C)c(C(=O)NCc2ccc(NC(=O)OCc3ccc(Cl)cc3)cc2)cn1 [Compound 165]
2.74	7.62	O=C(Nc1ccc(CNC(=O)N2CCN(CC(F)F)CC2)cc1)OCc1ccc(Cl)cc1 [Compound 258, (4-chlorophenyl)methyl N-(4-{[4-(2,2-difluoroethyl)piperazine-1-carbonylamino]methyl}phenyl)carbamate]
0.25	3.5	CC(=O)N1CC(OCc2ccc(NC(=O)OCc3ccc(Cl)cc3)cc2)C1 [Compound 16, 4-chlorobenzyl (4-(((1-acetylazetidin-3-yl)oxy)methyl)phenyl)carbamate]
0.24	2.16	CC(=O)N1CCC(c2ccc(NC(=O)OCc3ccc(Cl)cc3)cc2)CC1 [Compound 15, (4-chlorophenyl)methyl N-[4-(1-acetylpiperidin-4-yl)phenyl]carbamate]
2.05	27.6	CS(=O)(=O)C1CN(Cc2ccc(NC(=O)OCc3ccc(Cl)cc3)cc2)C1 [Compound 222, (4-chlorophenyl)methyl N-{4-[(3-methanesulfonylazetidin-1-yl)methyl]phenyl}carbamate]
5.40	26.8	O=C(Cc1cnco1)NCc1ccc(NC(=O)OCc2ccc(Cl)cc2)cc1 [Compound 311, (4-chlorophenyl)methyl N-(4-{[2-(1,3-oxazol-5-yl)acetamido]methyl}phenyl)carbamate]
4.81	26.4	O=C(Cc1ccc(NC(=O)OCc2ccc(Cl)cc2)cc1)NCc1cnccn1 [Compound 300, (4-chlorophenyl)methyl N-(4-{[(pyrazin-2-ylmethyl)carbamoyl]methyl}phenyl)carbamate]
7.87	51.1	COc1ccc(COC(=O)Nc2ccc(CN3CCN(C)C(=O)C3)cc2)cc1 [Compound 325, (4-methoxyphenyl)methyl N-{4-[(4-methyl-3-oxopiperazin-1-yl)methyl]phenyl}carbamate]
8.21	21.1	O=C(Nc1ccc(CNC(=O)c2ccnn2C2CCC2)cc1)OCc1ccc(Cl)cc1 [Compound 327, (4-chlorophenyl)methyl N-(4-{[(2-cyclobutylpyrazol-3-yl)formamido]methyl}phenyl)carbamate]
